Patent US20070134261A1, “Effectors of innate immunity” (priority 2001, published 2007)
≈ marks a conversion by molar mass, not a printed value. Marks after values point to notes of the source that are not given here. Residues, ends and D or L forms follow the SMILES beside them.

How the values were obtained:
S. Typhimurium SL1344 = assay: Intracellular survival/replication of S. Typhimurium SL1344 in IFN-γ-primed RAW cells (gentamicin-resistance assay); assay type: cell-based, Salmonella Typhimurium; details: pretreated with inhibitor 30 min prior to infection (50 μM U 0126, 50 μM PD 98059)
Human Jurkat T cells = assay: SDF-1 induced migration of human Jurkat T cells (Transwell); assay type: cell-based; details: SDF-1 + peptide (50 μg/ml), positive control 100%
Experimental: SDF-1, a C-X-C chemokine is a natural ligand for HIV-1 coreceptor-CXCR4. The chemokine receptors CXCR4 and CCR5 are considered to be potential targets for the inhibition of HIV-1 replication. […] The migration assays were performed as follows. Human Jurkat T cells were resuspended to 5×10^6/ml in chemotaxis medium (RPMI 1640/10 mM Hepes/0.5% BSA). Migration assays were performed in 24 well plates using […] polycarbonate Transwell inserts (Costar). Briefly, peptide or controls were diluted in chemotaxis medium and placed in the lower chamber while 0.1 ml cells (5×10^6/ml) was added to the upper chamber. After 3 hr at 37° C., the number of cells that had migrated into the lower chamber was determined using flow cytometry. The medium from the lower chamber was passed through a FACscan for 30 seconds, gating on forward and side scatter to exclude cell debris. The number of live cells was compared to a “100% migration control” in which 5×10^5/ml cells had been pipetted directly into the lower chamber and then counted on the FACscan for 30 seconds.

[1] = assay type: cell-based
Salmonella = Salmonella infection in BALB/c mice (viable bacteria in spleen); assay type: in vivo, mouse; details: mouse, in vivo, ip
Experimental: (§1) BALB/c mice were given 1×10^5 Salmonella and cationic peptide (200 μg) by intraperitoneal injection. The mice were monitored for 24 hours at which point they were euthanized, the spleen removed, homogenized and resuspended in PBS and plated on Luria Broth agar plates with Kanamycin (50 μg/ml). The plates were incubated overnight at 37° C. and counted for viable bacteria (Table 49 and 50). CD-1 mice were given 1×10^8 S. aureus in 5% porcine mucin and cationic peptide (200 μg) by intraperitoneal injection (Table 51). The mice were monitored for 3 days at which point they were euthanized, blood removed and plated for viable counts. CD-1 male mice were given 5.8×10^6 CFU EHEC bacteria and cationic peptide (200 μg) by intraperitoneal (IP) injection and monitored for 3 days (Table 52). […] Many of the cationic peptides were shown not to be directly antimicrobial as tested by the Minimum Inhibitory Concentration (MIC) assay (Table 54).

S. aureus = assay: Murine S. aureus infection model (CD-1 mice); assay type: in vivo, mouse; details: peptide 200 μg IP
Experimental: as §1

[2] = test system: A549 human epithelial cells; assay: Induction of chemokines (IL-8, MCP-1) in A549 cells (ELISA); assay type: cell-based; details: peptide 10 ug/ml, 24 hr
Experimental: The murine macrophage cell line RAW 264.7, THP-1 cells (human monocytes), a human epithelial cell line (A549), human bronchial epithelial cells (16HBEo14), and whole human blood were used. HBE cells were grown in MEM with Earle's. THP-1 cells were grown and maintained in RPMI 1640 medium. The RAW and A549 cell lines were maintained in DMEM supplemented with 10% fetal calf serum. […] DMEM was aspirated from cells grown overnight and replaced with fresh medium. After incubation of the cells with peptide, the release of chemokines into the culture supernatant was determined by ELISA (R&D Systems, Minneapolis, Minn.).

A549 epithelial cells = assay: Human Operon arrays (PRHU04-S1) of A549 cells treated with peptide alone (Tables 31-37, 53); details: 50 μg/ml, 4 h

## COc1cccc(-c2cc(=O)c3ccccc3o2)c1N [PD 98059]
S. Typhimurium SL1344
  Effect: bacterial filamentation (bacterial stress): Decrease bacterial filamentation (bacterial stress)^c
  Effect: number of intracellular S. Typhimurium: Increase in the number of intracellular S. Typhimurium

## N#CC(=C(/N)Sc1ccccc1N)/C(C#N)=C(\N)Sc1ccccc1N [U 0126]
S. Typhimurium SL1344
  Effect: bacterial filamentation (bacterial stress): Decrease bacterial filamentation (bacterial stress)^c
  Effect: number of intracellular S. Typhimurium: Increase in the number of intracellular S. Typhimurium

## SEQ 1D 1 (LLGDFFRKSKEKIGKEFKRIVQRIKDFLRNLVPRTES)
Human Jurkat T cells; Experiment 1
  Migration (%): 0%
Human Jurkat T cells; Experiment 2
  Migration (%): 0%

## CSCC[C@H](NC(=O)CNC(=O)[C@H](CCCNC(=N)N)NC(=O)[C@H](CCSC)NC(=O)[C@H](C)NC(=O)[C@@H](NC(=O)[C@H](CCCCN)NC(=O)[C@@H](NC(=O)[C@H](CS)NC(=O)[C@H](CCC(N)=O)NC(=O)[C@@H](N)CCCCN)C(C)C)C(C)C)C(=O)N[C@@H](C)C(=O)N[C@@H](CC(C)C)C(=O)N[C@@H](CCCNC(=N)N)C(=O)N[C@@H](CCCNC(=N)N)C(=O)N[C@@H](CS)C(=O)N[C@@H](CCCCN)C(=O)O [SEQ ID NO: 30] (H-KQCVKVAMRGMALRRCK-OH; N-terminus and C-terminus assumed)
[1]; 24 h
  MIC, C. rhod.: 16 µg/mL (≈ 8.09 µM)
  MIC, E. coli: 16 µg/mL (≈ 8.09 µM)
  MIC, EHEC: 4 µg/mL (≈ 2.02 µM)
  MIC, P. aerug.: 128 µg/mL (≈ 64.7 µM)
  MIC, S. typhim.: 16 µg/mL (≈ 8.09 µM)
[1]; Staphylococcus aureus, overnight, 96-well plate
  MIC, S. aureus: >
Salmonella
  Viable Bacteria in the Spleen: 5.79 ± 0.43 × 10^3 CFU/ml
S. aureus; 3 days, No Peptide 7.61 ± 1.7 × 10^3
  CFU/ml (blood): 1.29 ± 0.04 × 10^2 CFU/ml
S. aureus; No Peptide 6/8
  # Mice Survived (3 days)/Total mice in group: 4/4
[2]
  IL-8: 0.284 ng/mL
A549 epithelial cells
  Fold Up regulation of Gene Expression relative to Untreated Cells: Cell cycle gene (S70622): 8.5 fold
  Fold Up regulation of Gene Expression relative to Untreated Cells: Dehydrogenase (D17793): 2.3 fold
  Fold Up regulation of Gene Expression relative to Untreated Cells: Forkhead protein (AF042832): 14.1 fold
  Fold Up regulation of Gene Expression relative to Untreated Cells: Homeobox protein (AC004774): 3.2 fold
  Fold Up regulation of Gene Expression relative to Untreated Cells: Hypothetical Protein (AK002104): 4.7 fold
  Fold Up regulation of Gene Expression relative to Untreated Cells: Hypothetical Protein (AL022393): 4.4 fold
  Fold Up regulation of Gene Expression relative to Untreated Cells: IL-10 Receptor (U00672): 2.6 fold
  Fold Up regulation of Gene Expression relative to Untreated Cells: KIAA0284 Protein (AB006622): 3.4 fold
  Fold Up regulation of Gene Expression relative to Untreated Cells: Peroxisome factor (AB013818): 3.4 fold
  Fold Up regulation of Gene Expression relative to Untreated Cells: Polypeptide (AF105424): 2.5 fold
  Fold Up regulation of Gene Expression relative to Untreated Cells: Protein (AL050261): 3.3 fold
  Fold Up regulation of Gene Expression relative to Untreated Cells: Receptor (AF112461): 2.4 fold
  Fold Up regulation of Gene Expression relative to Untreated Cells: SPR1 protein (AB031480): 3.0 fold
  Fold Up regulation of Gene Expression relative to Untreated Cells: Transferase (AF038664): 12.3 fold
  Fold Up regulation of Gene Expression relative to Untreated Cells: Transferase (M63509): 2.7 fold
  Fold Up regulation of Gene Expression relative to Untreated Cells: Unknown (AL096803): 4.8 fold
  Fold Up regulation of Gene Expression relative to Untreated Cells: Zinc finger protein (AF061261): 2.6 fold
